Experimental data: patent US10765114B2, “4-amino-6-(pyridyl and 2-substitutedphenyl)-picolinates and 6-amino-2-(pyridyl and 2-substitutedphenyl)-pyrimidine-4-carboxylates and their use as herbicides” (Dow AgroSciences LLC, priority 2013, dated 2020)

system: Key Broadleaf Weed and Crop Species; assay: Post-Emergent Test II (Table 5); format: in vivo; details: Abutilon theophrasti, post-emergence, 336 h, ABUTH: velvetleaf (Abutilon theophrasti), application rate 70 (kg ai/ha; footnote: g ai/ha), read-out: Visual Growth Reduction (%) 14 Days After Application ABUTH
How it was run: (§1)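 Plants grown in a greenhouse (~15 h photoperiod, 23-29° C day) to first or second true leaf stage were sprayed post-emergence at 187 L/ha with compound in acetone/DMSO-based aqueous spray containing crop oil concentrate and surfactant, applied at a high rate plus ½× to 1/16× serial rates. Injury was scored visually 14 days later, 0-100% versus untreated plants.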

Structure (SMILES)	pest or weed control at 70 g/ha [%]
COC(=O)c1nc(-c2ccc(Cl)c(F)c2SC)cc(N)c1Cl [Compound 58]	85 to 94

same assay, conditions: Abutilon theophrasti, post-emergence, 336 h, ABUTH: velvetleaf (Abutilon theophrasti), application rate 140 (kg ai/ha; footnote: g ai/ha), read-out: Visual Growth Reduction (%) 14 Days After Application ABUTH

Structure (SMILES)	pest or weed control at 140 g/ha [%]
COC(=O)c1nc(-c2ccc(Cl)c(F)c2SC)cc(N)c1Cl [Compound 58]	85 to 94

same assay, conditions: Amaranthus retroflexus, post-emergence, 336 h, AMARE: redroot pigweed (Amaranthus retroflexus), application rate 70 (kg ai/ha; footnote: g ai/ha), read-out: Visual Growth Reduction (%) 14 Days After Application AMARE

Structure (SMILES)	pest or weed control at 70 g/ha [%]
COC(=O)c1nc(-c2ccc(Cl)c(F)c2SC)cc(N)c1Cl [Compound 58]	85 to 94

same assay, conditions: Amaranthus retroflexus, post-emergence, 336 h, AMARE: redroot pigweed (Amaranthus retroflexus), application rate 140 (kg ai/ha; footnote: g ai/ha), read-out: Visual Growth Reduction (%) 14 Days After Application AMARE

Structure (SMILES)	pest or weed control at 140 g/ha [%]
COC(=O)c1nc(-c2ccc(Cl)c(F)c2SC)cc(N)c1Cl [Compound 58]	95 to 100

same assay, conditions: Brassica napus, post-emergence, 336 h, BRSSS: oilseed rape, canola (Brassica napus), application rate 70 (kg ai/ha; footnote: g ai/ha), read-out: Visual Growth Reduction (%) 14 Days After Application BRSSS

Structure (SMILES)	pest or weed control at 70 g/ha [%]
COC(=O)c1nc(-c2ccc(Cl)c(F)c2SC)cc(N)c1Cl [Compound 58]	30 to 44

same assay, conditions: Brassica napus, post-emergence, 336 h, BRSSS: oilseed rape, canola (Brassica napus), application rate 140 (kg ai/ha; footnote: g ai/ha), read-out: Visual Growth Reduction (%) 14 Days After Application BRSSS

Structure (SMILES)	pest or weed control at 140 g/ha [%]
COC(=O)c1nc(-c2ccc(Cl)c(F)c2SC)cc(N)c1Cl [Compound 58]	60 to 74

same assay, conditions: Chenopodium album, post-emergence, 336 h, CHEAL: lambsquarters (Chenopodium album), application rate 70 (kg ai/ha; footnote: g ai/ha), read-out: Visual Growth Reduction (%) 14 Days After Application CHEAL

Structure (SMILES)	pest or weed control at 70 g/ha [%]
COC(=O)c1nc(-c2ccc(Cl)c(F)c2SC)cc(N)c1Cl [Compound 58]	95 to 100

same assay, conditions: Chenopodium album, post-emergence, 336 h, CHEAL: lambsquarters (Chenopodium album), application rate 140 (kg ai/ha; footnote: g ai/ha), read-out: Visual Growth Reduction (%) 14 Days After Application CHEAL

Structure (SMILES)	pest or weed control at 140 g/ha [%]
COC(=O)c1nc(-c2ccc(Cl)c(F)c2SC)cc(N)c1Cl [Compound 58]	95 to 100

same assay, conditions: Euphorbia heterophylla, post-emergence, 336 h, EPHHL: wild poinsettia (Euphorbia heterophylla), application rate 70 (kg ai/ha; footnote: g ai/ha), read-out: Visual Growth Reduction (%) 14 Days After Application EPHHL

Structure (SMILES)	pest or weed control at 70 g/ha [%]
COC(=O)c1nc(-c2ccc(Cl)c(F)c2SC)cc(N)c1Cl [Compound 58]	0 to 29

same assay, conditions: Euphorbia heterophylla, post-emergence, 336 h, EPHHL: wild poinsettia (Euphorbia heterophylla), application rate 140 (kg ai/ha; footnote: g ai/ha), read-out: Visual Growth Reduction (%) 14 Days After Application EPHHL

Structure (SMILES)	pest or weed control at 140 g/ha [%]
COC(=O)c1nc(-c2ccc(Cl)c(F)c2SC)cc(N)c1Cl [Compound 58]	0 to 29

same assay, conditions: Helianthus annuus, post-emergence, 336 h, HELAN: sunflower (Helianthus annuus), application rate 70 (kg ai/ha; footnote: g ai/ha), read-out: Visual Growth Reduction (%) 14 Days After Application HELAN

Structure (SMILES)	pest or weed control at 70 g/ha [%]
COC(=O)c1nc(-c2ccc(Cl)c(F)c2SC)cc(N)c1Cl [Compound 58]	0 to 29

same assay, conditions: Helianthus annuus, post-emergence, 336 h, HELAN: sunflower (Helianthus annuus), application rate 140 (kg ai/ha; footnote: g ai/ha), read-out: Visual Growth Reduction (%) 14 Days After Application HELAN

Structure (SMILES)	pest or weed control at 140 g/ha [%]
COC(=O)c1nc(-c2ccc(Cl)c(F)c2SC)cc(N)c1Cl [Compound 58]	75 to 84

same assay, conditions: Viola tricolor, post-emergence, 336 h, VIOTR: wild pansy (Viola tricolor), application rate 70 (kg ai/ha; footnote: g ai/ha), read-out: Visual Growth Reduction (%) 14 Days After Application VIOTR

Structure (SMILES)	pest or weed control at 70 g/ha [%]
COC(=O)c1nc(-c2ccc(Cl)c(F)c2SC)cc(N)c1Cl [Compound 58]	0 to 29

same assay, conditions: Viola tricolor, post-emergence, 336 h, VIOTR: wild pansy (Viola tricolor), application rate 140 (kg ai/ha; footnote: g ai/ha), read-out: Visual Growth Reduction (%) 14 Days After Application VIOTR

Structure (SMILES)	pest or weed control at 140 g/ha [%]
COC(=O)c1nc(-c2ccc(Cl)c(F)c2SC)cc(N)c1Cl [Compound 58]	0 to 29

system: Key Grass and Sedge Weeds as well as Grass Crops; assay: Post-Emergent Test II (Table 6); format: in vivo; details: post-emergence, 336 h, DIGSA: crabgrass (Digitaria sanguinalis), 70 g ai/ha, 14 days after application, read-out: Visual Growth Reduction (%) 14 Days After Application DIGSA
How it was run: as §1

Structure (SMILES)	pest or weed control at 70 g/ha [%]
COC(=O)c1nc(-c2ccc(Cl)c(F)c2SC)cc(N)c1Cl [Compound 58]	0 to 29

same assay, conditions: post-emergence, 336 h, DIGSA: crabgrass (Digitaria sanguinalis), 140 g ai/ha, 14 days after application, read-out: Visual Growth Reduction (%) 14 Days After Application DIGSA

Structure (SMILES)	pest or weed control at 140 g/ha [%]
COC(=O)c1nc(-c2ccc(Cl)c(F)c2SC)cc(N)c1Cl [Compound 58]	0 to 29

same assay, conditions: post-emergence, 336 h, ECHSS, 70 g ai/ha, 14 days after application, read-out: Visual Growth Reduction (%) 14 Days After Application ECHSS

Structure (SMILES)	pest or weed control at 70 g/ha [%]
COC(=O)c1nc(-c2ccc(Cl)c(F)c2SC)cc(N)c1Cl [Compound 58]	0 to 29

same assay, conditions: post-emergence, 336 h, ECHSS, 140 g ai/ha, 14 days after application, read-out: Visual Growth Reduction (%) 14 Days After Application ECHSS

Structure (SMILES)	pest or weed control at 140 g/ha [%]
COC(=O)c1nc(-c2ccc(Cl)c(F)c2SC)cc(N)c1Cl [Compound 58]	0 to 29

same assay, conditions: post-emergence, 336 h, ORYSS (crop), 70 g ai/ha, 14 days after application, read-out: Visual Growth Reduction (%) 14 Days After Application ORYSS

Structure (SMILES)	pest or weed control at 70 g/ha [%]
COC(=O)c1nc(-c2ccc(Cl)c(F)c2SC)cc(N)c1Cl [Compound 58]	0 to 29

same assay, conditions: post-emergence, 336 h, ORYSS (crop), 140 g ai/ha, 14 days after application, read-out: Visual Growth Reduction (%) 14 Days After Application ORYSS

Structure (SMILES)	pest or weed control at 140 g/ha [%]
COC(=O)c1nc(-c2ccc(Cl)c(F)c2SC)cc(N)c1Cl [Compound 58]	0 to 29

same assay, conditions: post-emergence, 336 h, SETFA: giant foxtail (Setaria faberi), 70 g ai/ha, 14 days after application, read-out: Visual Growth Reduction (%) 14 Days After Application SETFA

Structure (SMILES)	pest or weed control at 70 g/ha [%]
COC(=O)c1nc(-c2ccc(Cl)c(F)c2SC)cc(N)c1Cl [Compound 58]	0 to 29

same assay, conditions: post-emergence, 336 h, SETFA: giant foxtail (Setaria faberi), 140 g ai/ha, 14 days after application, read-out: Visual Growth Reduction (%) 14 Days After Application SETFA

Structure (SMILES)	pest or weed control at 140 g/ha [%]
COC(=O)c1nc(-c2ccc(Cl)c(F)c2SC)cc(N)c1Cl [Compound 58]	0 to 29

same assay, conditions: post-emergence, 336 h, SORVU: grain sorghum (Sorghum vulgare), 70 g ai/ha, 14 days after application, read-out: Visual Growth Reduction (%) 14 Days After Application SORVU

Structure (SMILES)	pest or weed control at 70 g/ha [%]
COC(=O)c1nc(-c2ccc(Cl)c(F)c2SC)cc(N)c1Cl [Compound 58]	0 to 29

same assay, conditions: post-emergence, 336 h, SORVU: grain sorghum (Sorghum vulgare), 140 g ai/ha, 14 days after application, read-out: Visual Growth Reduction (%) 14 Days After Application SORVU

Structure (SMILES)	pest or weed control at 140 g/ha [%]
COC(=O)c1nc(-c2ccc(Cl)c(F)c2SC)cc(N)c1Cl [Compound 58]	0 to 29

same assay, conditions: post-emergence, 336 h, TRZSS (crop), 70 g ai/ha, 14 days after application, read-out: Visual Growth Reduction (%) 14 Days After Application TRZSS

Structure (SMILES)	pest or weed control at 70 g/ha [%]
COC(=O)c1nc(-c2ccc(Cl)c(F)c2SC)cc(N)c1Cl [Compound 58]	0 to 29

same assay, conditions: post-emergence, 336 h, TRZSS (crop), 140 g ai/ha, 14 days after application, read-out: Visual Growth Reduction (%) 14 Days After Application TRZSS

Structure (SMILES)	pest or weed control at 140 g/ha [%]
COC(=O)c1nc(-c2ccc(Cl)c(F)c2SC)cc(N)c1Cl [Compound 58]	0 to 29

same assay, conditions: post-emergence, 336 h, ZEAMX: maize, corn (Zea mays), 70 g ai/ha, 14 days after application, read-out: Visual Growth Reduction (%) 14 Days After Application ZEAMX

Structure (SMILES)	pest or weed control at 70 g/ha [%]
COC(=O)c1nc(-c2ccc(Cl)c(F)c2SC)cc(N)c1Cl [Compound 58]	0 to 29

same assay, conditions: post-emergence, 336 h, ZEAMX: maize, corn (Zea mays), 140 g ai/ha, 14 days after application, read-out: Visual Growth Reduction (%) 14 Days After Application ZEAMX

Structure (SMILES)	pest or weed control at 140 g/ha [%]
COC(=O)c1nc(-c2ccc(Cl)c(F)c2SC)cc(N)c1Cl [Compound 58]	0 to 29
